pIC50: −log10 of the molar value.

The first assay has as its target T1, Brd4 bromodomain 1 (BRD4(1)) (Homo sapiens, UniProt O60885).
T1 construct: made in house; host or cells: E. coli BL21(DE3)
As to the kind of experiment: Inhibition of tetra-acetylated histone H4 binding to Brd4 bromodomain 1 (TR-FRET). Conditions: tetra-acetylated histone H4 peptide, first bromodomain of Brd4. The procedure:
Proteins were cloned and overexpressed with a N-terminal 6× His tag, then purified by nickel affinity followed by size exclusion chromatography. Briefly, E.coli BL21(DE3) cells were transformed with a recombinant expression vector encoding N-terminally Nickel affinity tagged bromodomains from Brd2, Brd3, Brd4. Cell cultures were incubated at 37° C. with shaking to the appropriate density and induced overnight with IPTG. The supernatant of lysed cells was loaded onto Ni-IDA column for purification. Eluted protein was pooled, concentrated and further purified by size exclusion chromatography. Fractions representing monomeric protein were pooled, concentrated, aliquoted, and frozen at −80° C. for use in subsequent experiments.
Binding of tetra-acetylated histone H4 and BET bromodomains was confirmed by a Time Resolved Fluorescence Resonance Energy Transfer (TR-FRET) method. N-terminally His-tagged bromodomains (200 nM) and biotinylated tetra-acetylated histone H4 peptide (25-50 nM, Millipore) were incubated in the presence of Europium Cryptate-labeled streptavidin (Cisbio Cat. #610SAKLB) and XL665-labeled monoclonal anti-His antibody (Cisbio Cat. #61HISXLB) in a white 96 well microtiter plate (Greiner). For inhibition assays, serially diluted test compound was added to these reactions in a 0.2% final concentration of DMSO. Final buffer concentrations were 30 mM HEPES pH 7.4, 30 mM NaCl, 0.3 mM CHAPS, 20 mM phosphate pH 7.0, 320 mM KF, 0.08% BSA). After a 2-h incubation at room temperature, the fluorescence by FRET was measured at 665 and 620 nm by a SynergyH4 plate reader (Biotek). The binding inhibitory activity was shown by a decrease in 665 nm fluorescence relative to 620 nm. IC50 values were determined from a dose response curve.
On the technique in general: In TR-FRET formats the signal depends on donor and acceptor labels being close together.
In the case of `COC(=O)c1cc(-c2c(C)noc2C)cc2c1[nH]c(=O)n2Cc1ccccc1` [Example Compound 20, methyl 1-benzyl-6-(3,5-dimethylisoxazol-4-yl)-2-oxo-2,3-dihydro-1H-benzo[d]imidazole-4-carboxylate], the pIC50 is ≥ 6.52.
Regarding `Cc1noc(C)c1-c1cnc2[nH]c(=O)n(Cc3ccc(Cl)c(Cl)c3)c2c1` [compound 101, 1-(3,4-dichlorobenzyl)-6-(3,5-dimethylisoxazol-4-yl)-1H-imidazo[4,5-b]pyridin-2(3H)-one], the pIC50 is 5.52 to 6.52.
The same measure, in the same setting: as for `Cc1noc(C)c1-c1cc([N+](=O)[O-])c2nc(NCc3ccccc3)n(Cc3ccccc3)c2c1` [compound 147, N,1-dibenzyl-6-(3,5-dimethylisoxazol-4-yl)-4-nitro-1H-benzo[d]imidazol-2-amine], the figure is ≥ 6.52; as for `Cn1nccc1-c1ccc2c(c1)N(Cc1ccccc1)CC(=O)N2` [compound 166, 4-benzyl-6-(1-methyl-1H-pyrazol-5-yl)-3,4-dihydroquinoxalin-2(1H)-one], 5.52 to 6.52; as for `Cn1nccc1-c1cnc2nc(N3CCOCC3)n(Cc3ccccc3)c2c1` [compound 175, 4-(1-benzyl-6-(1-methyl-1H-pyrazol-5-yl)-1H-imidazo[4,5-b]pyridin-2-yl)morpholine], 5.52 to 6.52.
Same read-out and setting: with `Cc1nn(C)c(C)c1-c1cc(N)c2nc(C)n(Cc3ccccc3)c2c1` [compound 184, 1-benzyl-2-methyl-6-(1,3,5-trimethyl-1H-pyrazol-4-yl)-1H-benzo[d]imidazol-4-amine] the figure was 4.52 to 5.52.
In the case of `Cc1noc(C)c1-c1cc(Br)c2nc(C)n(CCCc3ccccc3)c2c1` [compound 187, 4-(4-bromo-2-methyl-1-(3-phenylpropyl)-1H-benzo[d]imidazol-6-yl)-3,5-dimethylisoxazole], the pIC50 was 5.52 to 6.52.
On the same count and under the same terms, with `Cc1noc(C)c1-c1cc(Br)c2c(c1)nc(C)n2CCCc1ccccc1` [compound 188, 4-(7-bromo-2-methyl-1-(3-phenylpropyl)-1H-benzo[d]imidazol-5-yl)-3,5-dimethylisoxazole] the figure was 4.52 to 5.52; with `Cc1noc(C)c1-c1cc(Br)c2nc(C)n(CCOc3ccccc3)c2c1` [compound 189, 4-(4-bromo-2-methyl-1-(2-phenoxyethyl)-1H-benzo[d]imidazol-6-yl)-3,5-dimethylisoxazole], 5.52 to 6.52; with `Cc1noc(C)c1-c1cc(Br)c2c(c1)nc(C)n2CCOc1ccccc1` [compound 190, 4-(7-bromo-2-methyl-1-(2-phenoxyethyl)-1H-benzo[d]imidazol-5-yl)-3,5-dimethylisoxazole], 5.52 to 6.52.
The same measure, in the same setting: as for `CC(=O)Nc1cc(-c2ccnn2C)cc2c1n(C)c(=O)n2Cc1ccccc1` [compound 204, N-(1-benzyl-3-methyl-6-(1-methyl-1H-pyrazol-5-yl)-2-oxo-2,3-dihydro-1H-benzo[d]imidazol-4-yl)acetamide], the figure is 5.52 to 6.52.
Still for that read-out and setting: as for `Cc1noc(C)c1-c1cnc2nc(NC3CCC(N)CC3)n(Cc3ccccc3)c2c1` (stereo not shown) [compound 224, N1-(1-benzyl-6-(3,5-dimethylisoxazol-4-yl)-1H-imidazo[4,5-b]pyridin-2-yl)cyclohexane-1,4-diamine], the figure is ≥ 6.52; as for `Cc1noc(C)c1-c1cnc2nc(NCC3CCCCC3)n(Cc3ccccc3)c2c1` [compound 225, 1-benzyl-N-(cyclohexylmethyl)-6-(3,5-dimethylisoxazol-4-yl)-1H-imidazo[4,5-b]pyridin-2-amine], ≥ 6.52; as for `COCCCNc1nc2ncc(-c3c(C)noc3C)cc2n1Cc1ccccc1` [compound 226, 1-benzyl-6-(3,5-dimethylisoxazol-4-yl)-N-(3-methoxypropyl)-1H-imidazo[4,5-b]pyridin-2-amine], ≥ 6.52.
Regarding `Cc1noc(C)c1-c1cnc2nc(NC3COC3)n(Cc3ccccc3)c2c1` [compound 227, 1-benzyl-6-(3,5-dimethylisoxazol-4-yl)-N-(oxetan-3-yl)-1H-imidazo[4,5-b]pyridin-2-amine], the pIC50 was ≥ 6.52.
On to `Cc1noc(C)c1-c1cnc2[nH]c(=O)n(Cc3ccc(F)cc3)c2c1` [compound 228, 6-(3,5-dimethylisoxazol-4-yl)-1-(4-fluorobenzyl)-1H-imidazo[4,5-b]pyridin-2(3H)-one], for which the negative-log IC50 (pIC50) was ≥ 6.52.
Same read-out and setting: as for `Cc1noc(C)c1-c1cnc2nc(NCc3cnccn3)n(Cc3ccccc3)c2c1` [compound 229, 1-benzyl-6-(3,5-dimethylisoxazol-4-yl)-N-(pyrazin-2-ylmethyl)-1H-imidazo[4,5-b]pyridin-2-amine], the figure is ≥ 6.52; as for `Cc1noc(C)c1-c1cnc2nc(NCC3CCOCC3)n(Cc3ccccc3)c2c1` [compound 230, 1-benzyl-6-(3,5-dimethylisoxazol-4-yl)-N-((tetrahydro-2H-pyran-4-yl)methyl)-1H-imidazo[4,5-b]pyridin-2-amine], ≥ 6.52.
The same measure, in the same setting: with `Cc1noc(C)c1-c1cnc2nc(NCCN3CCN(C)CC3)n(Cc3ccccc3)c2c1` [compound 231, 1-benzyl-6-(3,5-dimethylisoxazol-4-yl)-N-(2-(4-methylpiperazin-1-yl)ethyl)-1H-imidazo[4,5-b]pyridin-2-amine] the figure was ≥ 6.52; with `CNc1nc2ncc(-c3c(C)noc3C)cc2n1Cc1ccc(F)cc1` [compound 232, 6-(3,5-dimethylisoxazol-4-yl)-1-(4-fluorobenzyl)-N-methyl-1H-imidazo[4,5-b]pyridin-2-amine], ≥ 6.52.
Same read-out and setting: as for `CNc1nc2ncc(-c3c(C)noc3C)cc2n1Cc1ccc(Cl)cc1` [compound 233, 1-(4-chlorobenzyl)-6-(3,5-dimethylisoxazol-4-yl)-N-methyl-1H-imidazo[4,5-b]pyridin-2-amine], the figure is ≥ 6.52; as for `Cc1noc(C)c1-c1cnc2nc(NC3CCCCC3)n(Cc3ccccc3)c2c1` [compound 234, 1-benzyl-N-cyclohexyl-6-(3,5-dimethylisoxazol-4-yl)-1H-imidazo[4,5-b]pyridin-2-amine], ≥ 6.52.
On to `Cc1noc(C)c1-c1cnc2nc(NC3CCN(C)CC3)n(Cc3ccccc3)c2c1` [compound 235, 1-benzyl-6-(3,5-dimethylisoxazol-4-yl)-N-(1-methylpiperidin-4-yl)-1H-imidazo[4,5-b]pyridin-2-amine], for which the pIC50 was ≥ 6.52.
Same read-out and setting: with `Cc1noc(C)c1-c1cnc2nc(Oc3cccnc3)n(Cc3ccccc3)c2c1` [compound 236, 4-(1-benzyl-2-(pyridin-3-yloxy)-1H-imidazo[4,5-b]pyridin-6-yl)-3,5-dimethylisoxazole] the figure was ≥ 6.52; with `Cc1noc(C)c1-c1cnc2nc(NCC(C)(C)O)n(Cc3ccccc3)c2c1` [compound 237, 1-((1-benzyl-6-(3,5-dimethylisoxazol-4-yl)-1H-imidazo[4,5-b]pyridin-2-yl)amino)-2-methylpropan-2-ol], ≥ 6.52; with `Cc1noc(C)c1-c1cnc2nc(NCCN3CCCC3)n(Cc3ccccc3)c2c1` [compound 238, 1-benzyl-6-(3,5-dimethylisoxazol-4-yl)-N-(2-(pyrrolidin-1-yl)ethyl)-1H-imidazo[4,5-b]pyridin-2-amine], ≥ 6.52.
On the same count and under the same terms, as for `Cc1noc(C)c1-c1cnc2nc(NCCN3CCCCC3)n(Cc3ccccc3)c2c1` [compound 239, 1-benzyl-6-(3,5-dimethylisoxazol-4-yl)-N-(2-(piperidin-1-yl)ethyl)-1H-imidazo[4,5-b]pyridin-2-amine], the figure is ≥ 6.52; as for `Cc1noc(C)c1-c1cc([N+](=O)[O-])c2[nH]c(=O)n([C@H](C)c3ccccc3)c2c1` [compound 240, (R)-6-(3,5-dimethylisoxazol-4-yl)-4-nitro-1-(1-phenylethyl)-1H-benzo[d]imidazol-2(3H)-one], ≥ 6.52; as for `COc1c(-c2c(C)noc2C)ccc2nc(C(F)(F)F)n(Cc3ccccc3)c12` [compound 241, 4-(1-benzyl-7-methoxy-2-(trifluoromethyl)-1H-benzo[d]imidazol-6-yl)-3,5-dimethylisoxazole], 5.52 to 6.52.

A further assay concerns human AML MV-4-11 cells. Put plainly: Inhibition of cell proliferation in MV4-11 cells (CellTiter Aqueous One). It is filed as cell-based. Conditions: 72 h. The procedure: MV4-11 cells: 96-well plates were seeded with 5×10^4 cells per well of exponentially growing human AML MV-4-11 (CRL-9591) cells and immediately treated with two-fold dilutions of test compounds, ranging from 30 μM to 0.2 μM. Triplicate wells were used for each concentration, as well as a media only and three DMSO control wells. The cells and compounds were incubated at 37° C., 5% CO2 for 72 h before adding 20 μL of the CellTiter Aqueous One Solution (Promega) to each well and incubating at 37° C., 5% CO2 for an additional 3-4 h. The absorbance was taken at 490 nm in a spectrophotometer and the percentage of proliferation relative to DMSO-treated cells was calculated after correction from the blank well. IC50 were calculated using the GraphPad Prism software.
In the case of `COC(=O)c1cc(-c2c(C)noc2C)cc2c1[nH]c(=O)n2Cc1ccccc1` [Example Compound 20, methyl 1-benzyl-6-(3,5-dimethylisoxazol-4-yl)-2-oxo-2,3-dihydro-1H-benzo[d]imidazole-4-carboxylate], the “Cell Proliferation activity” value is listed as “Not active”.
The same measure, in the same setting: as for `Cc1noc(C)c1-c1cc2c(ncn2Cc2ccc(F)cc2)[n+]([O-])c1` [compound 79, 6-(3,5-dimethylisoxazol-4-yl)-1-(4-fluorobenzyl)-1H-imidazo[4,5-b]pyridine 4-oxide], the entry is “Not active”.

The pIC50 is −log10 of the IC50, conventionally taken in molar units.

These data come from patent US10363257B2 (ZENITH EPIGENETICS LTD., priority 2013, dated 2019).
